This is an account of results in article PMC10092101 (Chemmedchem, 2022).

By EC50 is commonly meant the concentration at which the effect is half-maximal.

The subject of one assay is CCRL2. The settings on record: cited from earlier work.
The test system of assay [1] is CMKLR1. The settings on record: ref [13], [22]; cited from earlier work.
Another assay deals with GPR1. The settings on record: ref [13], [22]; cited from earlier work.
The target in a further assay is T1, Nluc‐CMKLR1‐eYFP (human, UniProt Q99788-2 1-371).
T1 sequence: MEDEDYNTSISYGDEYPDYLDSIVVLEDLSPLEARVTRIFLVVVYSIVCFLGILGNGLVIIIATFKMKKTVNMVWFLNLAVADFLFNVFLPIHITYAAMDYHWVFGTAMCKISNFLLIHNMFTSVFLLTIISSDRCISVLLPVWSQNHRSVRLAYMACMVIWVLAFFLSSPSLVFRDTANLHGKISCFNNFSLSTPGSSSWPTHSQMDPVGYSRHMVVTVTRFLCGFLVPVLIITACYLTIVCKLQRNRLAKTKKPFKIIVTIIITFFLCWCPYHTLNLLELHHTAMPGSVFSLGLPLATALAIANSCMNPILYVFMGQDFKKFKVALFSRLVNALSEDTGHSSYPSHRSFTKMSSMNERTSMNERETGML
Description: FRET or BRET. A general note: In BRET a luciferase serves as donor, and the signal depends on an acceptor being close.

The target of another assay is T2, Nluc‐GPR1‐eYFP (human, UniProt P46091 1-355).
T2 sequence: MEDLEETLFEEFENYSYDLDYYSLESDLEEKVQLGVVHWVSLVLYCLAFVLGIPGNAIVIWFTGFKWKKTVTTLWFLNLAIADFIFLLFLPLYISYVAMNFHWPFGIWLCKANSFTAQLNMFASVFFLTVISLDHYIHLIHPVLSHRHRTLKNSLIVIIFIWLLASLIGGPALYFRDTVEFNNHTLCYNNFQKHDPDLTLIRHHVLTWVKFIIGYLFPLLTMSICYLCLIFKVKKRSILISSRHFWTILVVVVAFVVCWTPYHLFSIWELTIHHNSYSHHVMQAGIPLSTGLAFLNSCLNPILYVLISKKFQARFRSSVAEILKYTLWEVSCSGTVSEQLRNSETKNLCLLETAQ
In words: FRET or BRET.

Assay [2] deals with T3, CMKLR1 (Homo sapiens, UniProt Q99788).
T3 sequence (Q99788 1-371 isoform Q99788-2): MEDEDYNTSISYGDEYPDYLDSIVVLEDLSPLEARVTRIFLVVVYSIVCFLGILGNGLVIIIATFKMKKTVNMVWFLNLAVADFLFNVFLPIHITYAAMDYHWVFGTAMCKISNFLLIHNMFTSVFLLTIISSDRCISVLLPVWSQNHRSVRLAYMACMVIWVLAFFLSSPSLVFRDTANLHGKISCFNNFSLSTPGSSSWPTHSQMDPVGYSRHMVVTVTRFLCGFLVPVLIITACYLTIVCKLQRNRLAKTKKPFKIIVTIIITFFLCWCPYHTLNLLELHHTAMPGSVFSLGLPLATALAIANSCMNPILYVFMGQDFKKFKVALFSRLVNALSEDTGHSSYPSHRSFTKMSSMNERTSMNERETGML
In words: IP-One assay. It is filed as cell-based. The settings on record: [K^141(TAMRA)]ChemS157 vs ChemS157, COS-7 cells.

In another assay the target is T4, Nluc‐GPR1 (Homo sapiens, UniProt P46091).
T4 sequence (P46091 1-355): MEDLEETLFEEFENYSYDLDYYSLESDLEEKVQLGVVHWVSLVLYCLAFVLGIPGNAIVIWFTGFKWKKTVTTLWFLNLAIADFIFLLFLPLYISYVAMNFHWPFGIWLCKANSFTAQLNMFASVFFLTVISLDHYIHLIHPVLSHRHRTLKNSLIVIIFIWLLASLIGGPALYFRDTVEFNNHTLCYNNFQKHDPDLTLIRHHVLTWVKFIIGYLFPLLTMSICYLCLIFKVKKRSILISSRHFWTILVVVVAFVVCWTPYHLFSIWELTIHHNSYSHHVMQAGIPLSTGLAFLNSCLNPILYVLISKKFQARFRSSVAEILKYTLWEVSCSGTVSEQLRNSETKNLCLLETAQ
Description: NanoBRET saturation binding at Nluc-GPR1. The settings on record: Nluc-GPR1 vs Nluc-CMKLR1.

On to “chemerin: 16 kDa protein expressed in liver, skin, lung or white adipose tissue; adipokine”, for which the “cellular response at CCRL2” value in the assay with CCRL2 (described to bind chemerin, no reference printed directly) was “leads to no cellular response”.
“ChemS157: most active chemerin form truncated at position S157, 137 amino acids; full‐length protein by recombinant expression”: the binding affinity entry in the assay with CMKLR1 [1] is on record as “high affinity”; in the assay with GPR1 it was “high affinity”; in the assay with CCRL2 (ref [13], [22]), “high affinity”.

B1: [K^141(TAMRA)]ChemS157 (ligand)
chain: ELTEAQRRGLQVALEEFHKHPPVQWAFQETSVESAVDTPFPAGIFVRLEFKLQQTSCRKRDWKKPECKVRPNGRKRKCLACIKLGSEDKVLGRLVHCPIETQVLREAEEHQETQCLRVQRKGEDPHSFYFPGQFAFS
modifications: TAMRA on the side chain of lysine 141
Take B1: the results for the EC50 in the assay with Nluc‐CMKLR1‐eYFP and with Nluc‐GPR1‐eYFP were 75.9 nM and 112 nM, respectively.

B2: [K^141(TAMRA)]ChemS157: TAMRA‐labeled full-length ChemS157, lysine 141 labeled, semi‐synthetic by native chemical ligation (protein)
chain: ELTEAQRRGLQVALEEFHKHPPVQWAFQETSVESAVDTPFPAGIFVRLEFKLQQTSCRKRDWKKPECKVRPNGRKRKCLACIKLGSEDKVLGRLVHCPIETQVLREAEEHQETQCLRVQRKGEDPHSFYFPGQFAFS
modifications: TAMRA on the side chain of lysine 141; left off: [His]10-[…], N-terminal, kept
As for B2, the “EC50 fold higher than ChemS157 without the TAMRA label” value with CMKLR1 [2] came to 2.5 fold. Moreover, in the assay with Nluc‐GPR1, the “shift of EC50 between Nluc-CMKLR1 and Nluc-GPR1” value was found to be 1.5 fold.
